Patent US10870647B2, “Imidazopyridine derivative, method for preparing same, and pharmaceutical composition containing same as active ingredient for preventing or treating cancer” (DAEGU-GYEONGBUK MEDICAL INNOVATION FOUNDATION, priority 2016, dated 2020)
pIC50: −log10 of the molar value.

Tests used:
Assay in all cases: Cancer cell proliferation inhibition, cell viability after 72 hours
Format in all cases: cell-based
[1] = test system: GIST-R1; conditions: imatinib-resistant, GIST patient originated
[2] = test system: GIST-R3; conditions: imatinib/sunitinib-resistant, GIST patient originated
In short: (§1)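 GIST-T1/816, GIST-430 and GIST-430/654 seeded at 2×10^4/100 μl; GIST-R3 (patient-derived, imatinib/sunitinib-resistant) likewise. Compounds added next day at 8 concentrations; viability after 72 hours by EZ-cytox or CellTiter-Glo, as % of vehicle-treated cells, IC50 from curves; two independent experiments.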

[3] = test system: GIST430; conditions: Homo sapiens, imatinib-sensitive
In short: as §1

[4] = test system: GIST-T1; conditions: Homo sapiens, GISTT1, imatinib-sensitive
[5] = test system: GIST-T1/816; conditions: Homo sapiens, GISTT1, imatinib-resistant
In short: as §1

[6] = test system: GIST430/654; conditions: GIST-430/654, imatinib-resistant
In short: as §1

SMILES: Cc1cn(-c2cc(NC(=O)c3ccc(C)c(C#Cc4cnc5c(Nc6cnn(C7CCN(C)CC7)c6)cccn45)c3)cc(C(F)(F)F)c2)cn1 [Example 76]
- pIC50 [1]: 4.59
- pIC50 [2]: 6.48
- pIC50 [3]: 6.25
- pIC50 [4]: 6.34
- pIC50 [5]: 4.88
- pIC50 [6]: 5.16
